Measured values reported in patent US20040171613A1, “Therapeutic agent for non-immediate type allergic diseases” (JAPAN TOBACCO INC., priority 2001, published 2004).

How the values were obtained:
[1] = system: antigen-induced asthma; assay: antigen-induced immediate type asthma, late-type asthma and airway hypersensitivity in guinea pigs; format: in vivo, guinea pig; conditions: oral, compound A 10, 30, 100 mg/kg, positive controls 30 mg/kg
Experimental: The test compound was further diluted to 20, 6 and 2 mg/mL on needed basis. As positive controls, 6 mg/mL pranlukast hydrate (extracted from Onon™ (Ono Pharmaceutical Co., Ltd.)) and 6 mg/mL prednisolone (Sigma) were similarly prepared.
Sensitization: Using an ultrasonic nebulizer (NE-U12; OMRON), a 6-weeks old male Hartley guinea pig (Kudo, Co., Ltd.) was continuously inhaled with 1% OVA (ovalbumin; Sigma)-containing physiological saline for 10 minutes per day for 8 consecutive days.
Antigen challenge: One week after the last sensitization, 2% OVA was similarly inhaled for 5 minutes. 24 hours before and one hour after the OVA challenge, metyrapone-containing physiological saline (Aldrich, 10 mg/mL) was administered intravenously and 30 minutes before the OVA induction, pyrilamine-containing physiological saline (Sigma, 10 mg/kg) was administered intraperitoneally.
During the 8 days of sensitization, the test compound was given one hour before the sensitization. On the day of the antigen challenge, the test compound was given one hour before the challenge. As solvent controls, the vehicle was similarly administered in accordance with OVA induction and physiological saline induction.
As positive controls, pranlukast hydrate was administered one hour before the challenge, while prednisolone was administered 16 hours and 2 hours before the challenge. The animals were fasted 16 to 18 hours before the oral administration.
Using total respiratory function analysis system (Pulmos-I, M.I.P.S. Company), the pre value was measured. Subsequently, specific airway resistance (hereinafter referred to as sRaw) per 100 breathes was measured one minute and 2, 4, 5, 6, 7 and 8 hours after the OVA challenge, and further once between 22 to 26 hours after the challenge, respectively. The average was used as sRaw at each measured time point. The increment ratio of sRaw was calculated by the following formula.
Increment ratio of sRaw (%)=[(sRaw at each measured time point −sRaw before the challenge)/(sRaw before the challenge)]×100
Twenty-two to 26 hours after the antigen challenge, each of 0.0625, 0.125, 0.25, 0.5, 1 and 2 mg/mL solutions of physiological saline and acetylcholine (hereinafter referred to as ACh) were sequentially inhaled for one minute, until the sRaw was 2-fold or more to the baseline sRaw (sRaw after inhalation of physiological saline). Based on the ACh concentration and the concentration-resistance curve of sRaw, the ACh concentration required for the sRaw to achieve 100% increase from the baseline sRaw, i.e., PC100ACh was determined.

[2] = target: CB2 (Homo sapiens, UniProt P34972); assay: cAMP production in forskolin-stimulated hCB2-expressing CHO cells; format: cell-based; design: expressed in transfected cells; host or cells: CHO cells
Chain of CB2 (P34972 whole entry): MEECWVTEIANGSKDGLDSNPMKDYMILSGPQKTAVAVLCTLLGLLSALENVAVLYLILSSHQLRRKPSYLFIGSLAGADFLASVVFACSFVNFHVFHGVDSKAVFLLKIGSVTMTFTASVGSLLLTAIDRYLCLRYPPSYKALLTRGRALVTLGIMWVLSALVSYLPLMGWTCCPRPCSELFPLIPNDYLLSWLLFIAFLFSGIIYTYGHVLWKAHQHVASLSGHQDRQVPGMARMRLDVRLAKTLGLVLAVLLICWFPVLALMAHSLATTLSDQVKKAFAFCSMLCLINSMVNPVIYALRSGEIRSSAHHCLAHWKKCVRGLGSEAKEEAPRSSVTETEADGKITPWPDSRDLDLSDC

Compound: CCCCCOc1c(OC)ccc2cc(C(=O)NCc3ccc4c(c3)OCO4)c(=O)[nH]c12 [Compound A, N-(benzo[1,3]dioxol-5-ylmethyl)-7-methoxy-2-oxo-8-pentyloxy-1,2-dihydroquinoline-3-carboxamide]
- airway hypersensitivity (PC100ACh) ([1]; 22 to 26 hours after antigen challenge): suppressed
- immediate type asthma response (sRaw immediately after antigen challenge) [1]: suppressed
- late asthmatic response (sRaw over 4 to 8 hours after antigen challenge) [1]: suppressed
- effect on agonistic action of 2-AG-E [2]: suppress the agonistic action of 2-AG-E
- cAMP production relative to control at 0.1 µM ([2]; CHO, read-out: Amount of cAMP production compared to control (ratio (%))): 430%
